In BindingDB's records for doi:10.1016/s0014-2999(03)02008-9 (Harvard University, 2003):

What was measured:
[1] = molecular target: 5-hydroxytryptamine receptor 2A (Rattus norvegicus, UniProt P14842)
[2] = molecular target: T1, Alpha-2C adrenergic receptor (Rattus norvegicus, UniProt P22086)
T1 sequence (P22086 whole entry): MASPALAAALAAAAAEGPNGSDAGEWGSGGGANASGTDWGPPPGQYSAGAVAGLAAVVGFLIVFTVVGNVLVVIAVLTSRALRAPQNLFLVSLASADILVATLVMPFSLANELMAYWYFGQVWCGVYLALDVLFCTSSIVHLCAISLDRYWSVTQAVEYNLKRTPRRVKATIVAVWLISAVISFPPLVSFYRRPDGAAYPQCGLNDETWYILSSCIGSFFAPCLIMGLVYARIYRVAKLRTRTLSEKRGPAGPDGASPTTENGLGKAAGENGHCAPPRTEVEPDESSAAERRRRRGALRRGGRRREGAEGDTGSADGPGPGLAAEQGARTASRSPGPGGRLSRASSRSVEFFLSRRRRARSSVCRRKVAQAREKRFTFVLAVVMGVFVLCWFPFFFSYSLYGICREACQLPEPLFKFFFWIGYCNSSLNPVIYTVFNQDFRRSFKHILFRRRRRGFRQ

D(2) dopamine receptor = D(2) dopamine receptor (Rattus norvegicus, UniProt P61169)
D(1B) dopamine receptor = D(1B) dopamine receptor (Homo sapiens, UniProt P21918)
D(1A) dopamine receptor = D(1A) dopamine receptor (Rattus norvegicus, UniProt P18901)
[3] = molecular target: T2, Solute carrier family 22 member 2 (Rattus norvegicus, UniProt Q9R0W2)
T2 sequence (Q9R0W2 whole entry): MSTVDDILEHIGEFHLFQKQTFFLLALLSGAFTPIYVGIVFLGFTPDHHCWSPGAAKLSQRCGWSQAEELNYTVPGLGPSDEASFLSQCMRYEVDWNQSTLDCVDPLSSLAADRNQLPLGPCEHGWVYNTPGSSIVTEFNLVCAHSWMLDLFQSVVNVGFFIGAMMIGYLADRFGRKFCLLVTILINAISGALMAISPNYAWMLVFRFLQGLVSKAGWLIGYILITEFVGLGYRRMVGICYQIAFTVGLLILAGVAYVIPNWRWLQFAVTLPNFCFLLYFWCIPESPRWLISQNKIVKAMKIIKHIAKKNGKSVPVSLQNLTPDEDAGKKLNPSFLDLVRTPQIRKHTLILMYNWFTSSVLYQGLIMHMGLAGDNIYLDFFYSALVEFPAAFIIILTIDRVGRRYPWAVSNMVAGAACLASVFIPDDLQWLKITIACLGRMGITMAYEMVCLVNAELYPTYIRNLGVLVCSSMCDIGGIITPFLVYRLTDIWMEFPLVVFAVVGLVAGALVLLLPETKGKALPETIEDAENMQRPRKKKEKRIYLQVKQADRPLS

Sequence of D(1B) dopamine receptor (P21918 whole entry): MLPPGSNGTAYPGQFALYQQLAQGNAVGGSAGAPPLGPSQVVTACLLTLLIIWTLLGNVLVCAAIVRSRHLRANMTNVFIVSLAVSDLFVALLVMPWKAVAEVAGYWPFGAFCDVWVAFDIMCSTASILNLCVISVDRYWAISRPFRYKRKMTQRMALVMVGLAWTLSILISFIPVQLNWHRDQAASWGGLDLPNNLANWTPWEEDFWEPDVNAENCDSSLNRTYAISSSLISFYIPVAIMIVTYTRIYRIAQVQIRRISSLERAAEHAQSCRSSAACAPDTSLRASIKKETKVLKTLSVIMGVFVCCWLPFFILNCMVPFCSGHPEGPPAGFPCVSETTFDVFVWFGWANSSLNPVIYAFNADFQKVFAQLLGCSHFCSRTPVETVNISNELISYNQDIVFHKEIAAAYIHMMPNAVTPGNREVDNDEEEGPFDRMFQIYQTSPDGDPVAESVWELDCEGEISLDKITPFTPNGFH
Sequence of D(1A) dopamine receptor (P18901 whole entry): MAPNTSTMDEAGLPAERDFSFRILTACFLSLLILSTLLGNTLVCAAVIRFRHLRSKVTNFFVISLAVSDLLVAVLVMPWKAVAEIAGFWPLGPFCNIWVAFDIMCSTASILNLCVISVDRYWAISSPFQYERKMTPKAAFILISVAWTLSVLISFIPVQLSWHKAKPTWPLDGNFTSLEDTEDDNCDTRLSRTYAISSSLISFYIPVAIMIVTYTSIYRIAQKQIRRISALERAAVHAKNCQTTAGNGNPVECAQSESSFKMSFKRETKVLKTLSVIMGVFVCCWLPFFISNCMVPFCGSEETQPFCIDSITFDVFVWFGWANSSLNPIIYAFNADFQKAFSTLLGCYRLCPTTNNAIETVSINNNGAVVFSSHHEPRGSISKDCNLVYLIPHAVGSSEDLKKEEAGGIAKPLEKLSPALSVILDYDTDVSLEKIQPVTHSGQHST
Sequence of D(2) dopamine receptor (P61169 whole entry): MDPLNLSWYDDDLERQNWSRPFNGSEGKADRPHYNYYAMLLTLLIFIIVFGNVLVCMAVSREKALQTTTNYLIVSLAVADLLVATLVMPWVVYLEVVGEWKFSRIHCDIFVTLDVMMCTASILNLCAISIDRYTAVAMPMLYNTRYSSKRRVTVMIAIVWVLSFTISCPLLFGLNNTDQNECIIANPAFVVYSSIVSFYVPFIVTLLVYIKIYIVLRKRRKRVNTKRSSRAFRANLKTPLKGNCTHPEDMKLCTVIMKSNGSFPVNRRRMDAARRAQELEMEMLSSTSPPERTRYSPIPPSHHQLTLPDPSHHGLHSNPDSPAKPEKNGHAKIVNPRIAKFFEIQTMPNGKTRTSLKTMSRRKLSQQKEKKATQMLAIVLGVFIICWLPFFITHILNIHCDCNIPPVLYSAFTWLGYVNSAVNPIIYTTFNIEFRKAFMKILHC
Sequence of 5-hydroxytryptamine receptor 2A (P14842 whole entry): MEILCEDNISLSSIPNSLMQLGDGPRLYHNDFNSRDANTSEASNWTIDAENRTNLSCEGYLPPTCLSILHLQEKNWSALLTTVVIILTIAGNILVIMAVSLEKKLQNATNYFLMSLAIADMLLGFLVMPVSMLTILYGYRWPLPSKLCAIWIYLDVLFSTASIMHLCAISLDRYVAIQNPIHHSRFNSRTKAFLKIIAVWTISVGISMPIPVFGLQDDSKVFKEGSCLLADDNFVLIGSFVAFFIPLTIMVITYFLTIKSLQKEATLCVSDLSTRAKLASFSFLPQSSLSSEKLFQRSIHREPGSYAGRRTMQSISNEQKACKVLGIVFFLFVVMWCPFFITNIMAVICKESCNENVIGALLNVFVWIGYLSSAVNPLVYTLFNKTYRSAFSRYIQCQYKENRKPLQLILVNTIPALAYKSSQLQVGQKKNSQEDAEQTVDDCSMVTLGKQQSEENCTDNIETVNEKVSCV

Row | SMILES | Ki [1] [nM] | Ki [2] [nM] | Ki (D(2) dopamine receptor) [nM] | Ki (D(1B) dopamine receptor) [nM] | Ki (D(1A) dopamine receptor) [nM] | Ki [3] [nM]
1 | C=CCN1CCc2cc(O)c(O)cc2C(c2ccccc2)C1 (stereo not drawn) | 3000 | 632 |  |  |  | 
2 | Cc1cccc([C@H]2CN(C)CCc3c2cc(O)c(O)c3Cl)c1 | 266 | 295 | 920 | 7.56 | 1.18 | 
3 | Oc1cc2c(cc1O)C(c1ccccc1)CNCC2 (racemic) [(+/-)-SKF-38393] | > 10000 | 248 |  |  |  | 
4 | C=CCN1CCc2c(cc(O)c(O)c2Cl)C(c2ccccc2)C1 (racemic) [SKF 82958] | 1610 | 558 |  |  |  | 
5 | Cc1cccc([C@H]2CN(C)CCc3c2cc(O)c(O)c3Cl)c1 [MCL-201] |  | 632 | 2140 |  | 21.3 | 
6 | Cc1cccc([C@@H]2CN(C)CCc3c2cc(O)c(O)c3Cl)c1 [MCL-202] | 88.6 |  | 515 | 1.53 | 0.49 | 3000
7 | Cc1cccc([C@@H]2CN(C)CCc3c2cc(O)c(O)c3Br)c1 [MCL-203] | 224 | 461 | 440 | 2.47 | 0.19 | 
8 | C=CCN1CCc2c(cc(O)c(O)c2Br)C(c2cccc(C)c2)C1 (stereo not drawn) [MCL-204] | 598 | 709 | 83.8 | 12 | 0.11 | 
9 | Cc1cccc(C2CNCCc3c2cc(O)c(O)c3Br)c1 (stereo not drawn) [MCL-205] | 1300 | 338 | 1070 | 13.7 | 4.41 | 
10 | Cc1ccc(C2CN(C)CCc3c2cc(O)c(O)c3Cl)cc1 (stereo not drawn) [MCL-206] | 147 | 250 | 362 | 3.96 | 1.93 | 
11 | Cc1cccc(C2CNCCc3c2cc(O)c(O)c3Cl)c1 (stereo not drawn) [MCL-209] | 1200 | 240 | 5000 | 0.88 | 0.6 | 
12 | C=CCN1CCc2c(cc(O)c(O)c2Cl)C(c2cccc(C)c2)C1 (stereo not drawn) [MCL-210] | 995 | 877 | 119 | 9.94 | 0.52 | 
13 | CN1CCc2c(cc(O)c(O)c2Br)[C@H](c2cccc(C(F)(F)F)c2)C1 [MCL-211] | 68.9 | 365 | 1050 |  | 8.66 | 
14 | Cc1ccc(C2CN(C)CCc3c2cc(O)c(O)c3Br)cc1 (stereo not drawn) [MCL-212] | 124 | 493 | 1030 | 4.36 | 19.3 | 
15 | C=CCN1CCc2c(cc(O)c(O)c2Br)C(c2ccc(C)cc2)C1 (stereo not drawn) [MCL-213] | 977 | 1090 | 1700 |  | 128 | 
16 | Cc1ccccc1C1CN(C)CCc2c1cc(O)c(O)c2Br (stereo not drawn) [MCL-214] | 45.8 | 186 | 409 | 3.42 | 1.1 | 
17 | C=CCN1CCc2c(cc(O)c(O)c2Br)C(c2ccccc2C)C1 (stereo not drawn) [MCL-215] | 742 | 414 | 239 |  | 37.1 | 
18 | Cc1ccccc1C1CNCCc2c1cc(O)c(O)c2Br (stereo not drawn) [MCL-216] | 398 | 133 | 19.5 | 1.95 | 1.81 | 
19 | C=CCN1CCc2c(cc(O)c(O)c2Br)C(c2ccccc2C(F)(F)F)C1 (stereo not drawn) [MCL-217] | > 10000 | > 10000 | > 10000 |  | > 10000 | 
20 | Oc1cc2c(c(Br)c1O)CCNC[C@H]2c1cccc(C(F)(F)F)c1 [MCL-218] | 992 | 776 | > 10000 |  | 1240 | 
21 | Cc1cccc([C@@H]2CN(C)CCc3c(Cl)cc(O)cc32)c1 [MCL-230A] |  |  |  |  | > 10000 | 
22 | Cc1ccccc1C1CN(C)CCc2c1cc(O)c(O)c2Cl (stereo not drawn) [NSC_0] | 70.6 | 66.6 |  | 2.32 | 0.46 | 
23 | Oc1cc2c(c(Cl)c1O)CCNCC2c1ccccc1 (stereo not drawn) [NSC_1218] | 995 | 509 |  |  |  | 
24 | CN1CCc2cc(Cl)c(O)cc2C(c2ccccc2)C1 (stereo not drawn) [NSC_5018] | 10.8 | 208 |  |  |  | 
